Assay results published in patent publication US10865451B2, “Non-invasive blood based monitoring of genomic alterations in cancer” (Dana-Farber Cancer Institute, Inc., priority 2013, dated 2020).

System: advanced EGFR-mutant NSCLC
Assay: Serial ddPCR plasma genotyping of patients on first-line erlotinib (NCT00997334) until RECIST progression
Format: in vivo, human
Procedure: For each eligible patient, plasma was collected during routine care either prior to first-line therapy or at a subsequent time when the cancer was progressing on therapy. Additional follow-up specimens were collected if possible during routine care. Each specimen was collected into one 10 mL EDTA-containing vacutainer and was spun into plasma within 4 hours of collection. Plasma cfDNA was extracted and frozen at −80 C until genotyping. Total DNA concentration in extracted plasma was measured via a modified quantitative PCR assay for human long interspersed element 1 (LINE-1).
Each droplet is individually assigned a positive or negative value based on the fluorescent intensity. The amount of positives and negatives are read by a flow cytometer and are used to calculate the concentration of an allele. To minimize bias and to ensure the integrity of results, the laboratory was blinded to the tumor genotype when testing plasma specimens, but results were selectively unblinded for data analysis. Each plasma sample was analyzed in triplicate with an increasing quantity of input DNA (e.g. 1 μL, 2 μL, and 4 μL). Results were normalized to a mean concentration of mutant alleles per μL DNA input, and reported as copies of mutant allele per 100 μL of DNA, the approximate DNA quantity isolated from one blood specimen.

C#Cc1cccc(Nc2ncnc3cc(OCCOC)c(OCCOC)cc23)c1 [erlotinib]
patients exhibiting a plasma response (drop of plasma level of EGFR sensitizing mutation) (9 analysed patients with EGFR exon 19 deletion and detectable pretreatment plasma genotype): 9 patients | patients demonstrating a complete plasma response (of 9 analysed patients): 8 patients | patients with plasma levels of mutant EGFR again detected at objective progression (plasma T790M also identified) (of 9 analysed patients, at RECIST progression): 6 patients
